Test results published in patent publication US20240027450A1, “COMPOSITIONS AND METHODS FOR […]-COV-2 (COVID-19) AND FOR […]-COV-2-[…] IMM[…]” (QIAGEN SCIENCES LLC, priority 2020, published 2024).

System: T cells in whole blood samples
Experiment: IFN-γ release (QuantiFERON SARS-CoV-2 tubes, ELISA) in whole blood of vaccinated donors, Example 2
Format: cell-based, human

phytohemagglutinin [Mit]
IFN-γ, Nil-subtracted (Donor 1, Day 4 after first dose of vaccine): 7.19 IU/mL
IFN-γ, Nil-subtracted (Donor 1, Day 11 after first dose of vaccine): >10 IU/mL
IFN-γ, Nil-subtracted (Donor 2, Day 4 after first dose of vaccine): 5.74 IU/mL
IFN-γ, Nil-subtracted (Donor 2, Day 11 after first dose of vaccine): >10 IU/mL
IFN-γ, Nil-subtracted (Donor 3, Day 4 after first dose of vaccine): 7.07 IU/mL
IFN-γ, Nil-subtracted (Donor 3, Day 11 after first dose of vaccine): >10 IU/mL
IFN-γ, Nil-subtracted (Donor 4, Day 4 after first dose of vaccine): 5.78 IU/mL
IFN-γ, Nil-subtracted (Donor 4, Day 11 after first dose of vaccine): >10 IU/mL
IFN-γ, Nil-subtracted (Donor 5, Day 4 after first dose of vaccine): 7.13 IU/mL
IFN-γ, Nil-subtracted (Donor 5, Day 11 after first dose of vaccine): >10 IU/mL
IFN-γ, Nil-subtracted (Donor 6, Day 4 after first dose of vaccine): 6.59 IU/mL
IFN-γ, Nil-subtracted (Donor 6, Day 11 after first dose of vaccine): >10 IU/mL
IFN-γ, Nil-subtracted (Donor 7, Day 4 after first dose of vaccine, […]): 3.01 IU/mL
IFN-γ, Nil-subtracted (Donor 7, Day 11 after first dose of vaccine): >10 IU/mL
IFN-γ, Nil-subtracted (Donor 8, Day 7 after first dose of vaccine): 7.13 IU/mL
IFN-γ, Nil-subtracted (Donor 9, Day 0 after first dose of vaccine): 6.19 IU/mL
IFN-γ, Nil-subtracted (Donor 9, Day 7 after first dose of vaccine): >10 IU/mL
IFN-γ, Nil-subtracted (Donor 10, Day 7 (Second Dose)): >10 IU/mL
IFN-γ, Nil-subtracted (Donor 10, Day 22 (First-dose)): >10 IU/mL
